{"source": "patent US8883798B2", "about": "“Pyrimidine compounds inhibiting the formation of nitric oxide and prostaglandin E2, method of production thereof and use thereof” (Ustav Organicke Chemie a Biochemie Akademie Ved CR, V.V.I., priority 2011, dated 2014)", "key": {"[1]": {"system": "production of nitric oxide (NO)", "assay": "Production of nitric oxide (NO) in cultures of mouse peritoneal cells stimulated with IFN-γ plus LPS (Griess reagent)", "format": "cell-based, mice", "settings": "Table 3A; substance 50 μmol·l^−1; IFN-g plus LPS; 24 h", "outline": "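C57BL/6 mouse peritoneal cells (2×10^6/mL) stimulated with IFN-γ (5000 pg/mL) plus LPS (100 pg/mL), compounds at 50 μmol·l^−1. Nitrite measured by Griess reagent after 24 h, expressed as % of stimulated control (set 100%); IC50 is concentration reducing NO by 50%.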"}, "[2]": {"system": "adjuvant arthritis in sewer rats", "assay": "Adjuvant arthritis in female Lewis sewer rats (Freund's complete adjuvant)", "format": "in vivo, sewer rats of the inbred strain Lewis", "settings": "50 mg/kg orally, Day 9 to Day 16; versus methylcellulose group"}, "[3]": {"system": "human umbilical vein endothelial cells (HUVEC)", "assay": "Tube formation assay of HUVEC on Matrigel (in vitro angiogenesis)", "format": "cell-based", "settings": "8 h", "from_the_text": "This so called “Tube Formation Assay” is a method based on the ability of endothelial cells to form capillary-like tubular structures when cultured on Matrigel™ (a gel of basement membrane extract—their natural substrate). The process of capillary-like tube formation includes endothelial cell attachment, migration, and differentiation into tubules. In this experiment, treatment with tested compounds started at the time of seeding HUVEC onto Matrigel and the extent of tubule development was observed after an 8 h time period. Disruption of tube formation was then assessed through observation of the tubular network and direct comparison to solvent-only controls. The quantitative and qualitative measurement of tubular network complexity was performed using web-based S.CORE imaging software and expressed by means of number of tubes, their total length, quality, number of branching points, etc. All these parameters were integrated into “tube formation index” which corresponds to the degree of complexity of tubular network. […] At a 10 μmol/L concentration, compound 23 reduced tube formation by >90%. […] Apoptosis in HUVECs (at ˜70% confluency) treated with or without varying concentrations (relevant for the tube formation assay) of tested substances was assessed by a combination of Annexin V and JC-1 staining. After 8 h of these treatments, cells were collected, and the cell population undergoing apoptosis was identified by double-parameter flow cytometry using annexin V and the vital dye propidium iodide (PI). Mitochondrial membrane potential in treated endothelial cells was measured using the lypophilic probe JC-1, which aggregates in healthy mitochondria and fluoresces red, but diffuses in the cytoplasm and fluoresces green upon mitochondrial damage. In both cases, quantification of apoptotic cells were conducted in BD FACSDiva software."}, "HUVEC": {"system": "HUVEC", "assay": "HUVEC cell proliferation (XTT assay)", "format": "cell-based, human", "settings": "10 to 50 μmol/L, 8 hours"}, "chronic colitis in mice": {"system": "chronic colitis in mice", "assay": "Chronic murine colitis induced by dextran sulfate sodium", "format": "in vivo, mice (Balb/c)", "settings": "10 mg/kg orally, daily for 15 days", "experimental": "Chronic colitis was induced in mice (Balb/c) by dextran sulfate sodium (DSS), used as a 3% solution in drinking water. DSS treatment was applied intermittently on the three 5-day intervals, separated by the 9-day intervals (i.e. between the DSS cycles 1/2 and 2/3) during which the mice drunk normal water.\nThe test compounds were given orally, suspended in 0.5% methylcellulose. The dose was 10 mg/kg. The daily dosing started immediately after the second DSS interval and lasted to the end of the 3rd DSS interval, i.e. for the duration of 15 days. At this point, the animals were sacrificed and clinical signs of colitis were examined. Except of continuous monitoring the body weight, the following parameters were evaluated: a) colon length, b) disease activity index, and c) histological grade. Three compounds were included in this experiment: nos. 19, 51, and 28. 5-Aminosalycilic acid was used as a positive reference drug. The effects were compared to the group of mice receiving placebo (0.5% methylcellulose)."}, "[4]": {"system": "human peripheral blood lymphocytes", "assay": "Chromosomal aberration test in vitro", "format": "cell-based", "settings": "0.1, 0.2 and 0.5 mg/ml; with and without metabolic activation", "experimental": "The clastogenicity potential of compound no. 28 was determined using chromosomal aberration test in vitro. The test was carried out in human peripheral blood lymphocytes both with and without metabolic activation system in two separate assays.\nThree concentrations were selected for the test: 0.1, 0.2 and 0.5 mg/ml of final culture. Cells were arrested at metaphase by colchicine, harvested and slides were stained. Metaphase cells were analyzed microscopically for the presence of chromosomal aberrations. A total of 200 well-spread metaphases were examined per concentration on coded slides. Concurrent positive (thiotepa, cyclophosphamide) and negative (2% DMSO) controls were included in each experiment. […]."}, "[5]": {"settings": "rat, in vivo, po, 800 mg/kg", "description": "(§1) 28. The plasma samples were taken in intervals during 48 hours. […] Plasma samples were prepared by centrifugation (3500 rpm, 10 min, 4° C.), transferred into appropriately labelled and sealed Eppendorf tubes and frozen at −20° C. until transportation to analyses. The plasma was split into two aliquots. All samples were transported in a sufficient amount of dry ice to the analytical laboratory.\n(§2) The analysis was performed using HPLC/MS/MS method with the use of internal deuterated standard and precipitation separation method. The analytical method used 50 μl of plasma sample for each analysis. The method was validated for concentration as low as 10.0 ng of the compound in 1 ml of plasma. A weighted liner regression was evaluated over the concentration range from 10.0-10 000.0 ng of the compound in 1 ml of plasma. Spiked plasma samples were precipitated with the solution of internal standard. The sample supernatant was analyzed on HPL/MS/MS system TSQ-03."}, "[6]": {"assay": "Pilot toxic-kinetic study, single per-oral administration", "settings": "female Wistar rats; single per-oral dose 800 mg/kg; plasma", "description": "as §1, §2"}}, "data": [{"compound": "CCCCc1c(Cl)nc(NC=O)nc1Cl", "note": "[Substance 51]", "values": [{"measurement": "Production of nitric oxide in % of the controls", "setting": "[1]", "value": "8.37 ± 2.77 % of the controls"}, {"measurement": "Severity of adjuvant arthritis (size of contralateral paws)", "setting": "[2]", "value": "distinctive (statistically significant) reduction of the severity of the illness"}, {"measurement": "Effect on tube formation", "setting": "[3]; 10 μmol/L", "value": "only limited effect"}, {"measurement": "Incomplete tube formation", "setting": "[3]; 25 μmol/L", "value": "~6", "unit": "%"}, {"measurement": "Capillary tube formation", "setting": "[3]", "value": "inhibited capillary tube formation in a dose dependent manner"}, {"measurement": "HUVEC cell proliferation", "setting": "HUVEC", "value": "did not influence HUVEC cell proliferation"}]}, {"compound": "CCCCc1c(Cl)nc(N)nc1Cl", "note": "[Substance 28]", "values": [{"measurement": "Production of nitric oxide in % of the controls", "setting": "[1]", "value": "53.23 ± 5.79 % of the controls"}, {"measurement": "Clinical signs of chronic experimental colitis", "setting": "chronic colitis in mice", "value": "significantly lowers the clinical signs of chronic experimental colitis"}, {"measurement": "Colon length (inflammation in the gut)", "setting": "chronic colitis in mice", "value": "protection against the shortening of colon"}, {"measurement": "Effectiveness compared with 5-aminosalycilic acid", "setting": "chronic colitis in mice", "value": "slightly more effective than the reference drug"}, {"measurement": "Overall disease activity index", "setting": "chronic colitis in mice", "value": "lower than in the placebo group"}, {"measurement": "Numerical and structural chromosome aberrations (clastogenicity)", "setting": "[4]", "value": "did not induce an increase in numerical and structural chromosome aberrations"}, {"measurement": "Toxic effect in animals", "setting": "[5]", "value": "No apparent toxic effect was observed"}, {"measurement": "Cmax = maximum concentration", "setting": "[6]", "value": 337.2, "unit": "ng/mL"}, {"measurement": "Terminal elimination rate half-life", "setting": "[6]", "value": 15.9, "unit": "h"}]}]}
